“Also recorded” adds a separate entry of the source.
What was measured:
[1] = test system: B cells of mice with PGIA; experiment: Molecular, cellular and histological analyses of AzaC-treated PGIA mice; format: in vivo, BALB/c mice
[2] = test system: A20 cells; experiment: Western blot of subcellular fractions of AzaC treated A20 cells; format: cell-based, mouse
Description: Western blot analyses: AzaC treated A20 cells (10 μM AzaC for 72 hours) washed with PBS, nuclear and cytoplasmic extracts were prepared from 8×10^6 cells using Nuclei EZ Prep kit (Sigma-Aldrich) according to the manufacturer's protocol. Protein extracts were separated on a 4-10% SDS-polyacrylamide gel (Bio-Rad Laboratories) and blotted onto Immuno-Blot membrane (Bio-Rad Laboratories). Western blots were serially probed with anti-AhR, anti-Lamin-B1 and glyceraldehyde-3-phosphate dehydrogenase (GAPDH) (Santa Cruz Biotechnologies) antibodies. ECL Western Blotting Substrate (ThermoScientific) was used for detection.

[3] = test system: A20 cells; experiment: Gene expression (qRT-PCR) in A20 cells cultured with epigenetic enzyme inhibitors; format: cell-based, mouse
Description: Cell cultures: A20 mouse B cell line were purchased from American Type Culture Collection (ATCC) and were maintained at 37° C. in a 5% CO2-humidified atmosphere on Dulbecco's modified Eagle's medium (DMEM) containing 10% fetal bovine serum (FBS) and […] each of penicillin and streptomycin. Human B cell line GM12878 were purchased from ATCC and cultured in RPMI 1640 media and maintained at 37° C. in a 5% CO2-humidified incubator as described above.
Azacitidine (AzaC) treatment of A20 cells: […] were seeded into 6-well plates containing 3 ml cell culture medium. Before AzaC treatment, cells were incubated for 16-18 hours at 37° C. in 5% CO2. Cells were treated with AzaC to a final concentration of 5, 10 and […], control cells were treated with 0.15% DMSO. Cells were incubated for 48, 72 and 96 hours under standard cell culture conditions. After 48 and 72 hours AzaC was replenished to keep the desired AzaC concentration. Harvested cells were washed with phosphate buffered saline (PBS) and viability and cell numbers were assessed on Vi-cell XR cell counter (Beckmann Counter).
(§1) RNA isolation, cDNA synthesis, and quantitative reverse transcription-polymerase chain reaction (qRT-PCR): Total RNA from cell culture was isolated using QIAmp RNA Blood Kit (Qiagen) or Direct-Zol™ RNA miniprep Kit (Zymo Research). Each RNA sample was digested with 4U of TurboDNase™ (Ambion) and purified with RNA clean and concentrator-5 (Zymo Research) and samples quantified using NanoDrop 1000 spectrophotometer. Primary mouse cells were collected from the spleens, on day 9 after the third PG injection. B cells were purified using antibody-coated magnetic beads (StemCell Technologies). RNA was isolated from purified mouse lymphocytes using a TRI reagent (Sigma-Aldrich) immediately after separation.
Human peripheral blood mononuclear cells (PBMCs) were separated on a Ficoll gradient from blood samples obtained from consenting, healthy individuals and from RA patients naive to treatment with disease-modifying antirheumatic drugs (DMARDs). The isolated mononuclear cells were stored in RNAlater (Life Technologies) until RNA preparation. Complementary DNA was reverse transcribed from 1 μg total RNA with iScript™ Reverse Transcription Supermix (Bio-Rad Laboratories). Quantitative RT-PCR (CFX Connect™, Bio-Rad Laboratories) was performed in triplicate using SsoAdvanced™ Universal SYBR Green Supermix (Bio-Rad Laboratories) in 10 μl. Quantitative RT-PCR was performed using CFX machine (Bio-Rad). Primers were designed using PrimerQuest software and were manufactured by Integrated DNA Technologies. The qRT-PCR primer sequences are available upon request from the corresponding author. The specificity of the qRT-PCR product was monitored by a post-PCR melting curve analysis. Samples were tested in duplicate, and the CFX manager software was used to calculate the normalized fold expression changes based on the ΔΔCt method. Measured Ct values were normalized to β-actin internal control values.

[4] = test system: proteoglycan-induced arthritis (PGIA); experiment: Prophylactic AzaC treatment of mice with PGIA; format: in vivo, BALB/c mice; details: prophylactic AzaC i.p. every other day from 10 days before expected onset
Description: (§2) Mice: Retired breeder female BALB/c mice were purchased from the National Cancer Institute (NCI) and were used for the generation of cartilage proteoglycan-induced arthritis (PGIA). Briefly, the mice were immunized with PG purified from knee joint cartilage osteoarthritis patients who had undergone joint replacement surgery. PG was injected intraperitoneally (IP) 3 times (at 3-week intervals, 100 μg PG core protein/injection) with 2 mg of dimethyl-dioctadecyl-ammonium bromide adjuvant into BALB/c mice. Mice with acute arthritis were sacrificed 9 days after the 3rd PG immunization. Animal experiments were approved by the Institutional Animal Care and Use Committee at Rush University Medical Center, Chicago, Ill. […] Additional characteristics of RA are also present in other rodent models, but the above listed phenotypes and genotypes are present together only in PGIA.
First, the prophylactic effect of AzaC on arthritis development in mice with PGIA was investigated. AzaC treatment was started 10 days before the expected PGIA onset (on day 40 of the immunization) and was administered intraperitoneally (i.p.) every other day. The control group received saline solution (FIG. 3(A)). […] Female BALB/c mice were immunized 3 times with PG. Limbs were inspected regularly after the third PG injection for signs of arthritis, and a visual arthritis score was assigned to all paws. […]

[5] = test system: B cells of mice with PGIA; experiment: Molecular, cellular and histological analyses of AzaC-treated PGIA mice; format: in vivo, BALB/c mice; remark: listed apart in the source
Source text: as §1
Genomic DNA (gDNA) purification, Global DNA methylation assessment and Methylated CpG island ecovery assay (MIRA)-assisted microarray (MIRA-chip) and data analysis: gDNA was isolated from affinity purified B cells using QIAamp DNA Mini Kit (Qiagen). Global DNA methylation analysis was performed using Imprint Methylated DNA Quantification kit (Sigma-Aldrich). Experiments were conducted according to manufacturer instructions MIRA enrichment of methylated gDNA fractions were performed by MethylCollector™ Ultra kit (Active Motif), captured fractions were labeled and hybridized to microarrays harboring all mouse promoters and CpG island outside of the promoter regions (NimbleGene). Data analysis was performed as described before.
In another embodiment, the effect of AzaC treatment on germinal center (GC) formation in animals was investigated. Germinal center formation was examined in control (DDA adjuvant-injected and arthritic non-treated) and arthritic AzaC-treated mice (FIG. 4(C-D)). […] Joint-draining lymph nodes (FIG. 4(C)) and spleens (FIG. 4(D)). DDA-injected (adjuvant control), vehicle-treated mice with PGIA and AzaC-treated mice with PGIA. Green-GL7 (activated B and T cell marker), Red-CD45/B220 (B cells), Blue-CD4 & CD8a (T cells). Arrows point to GCs. GC %-percentage of GC-containing follicles observed in the investigated lymph nodes and spleens (n=36 follicles from LNs, n=106 follicles from spleens). Green sidebars-percentage of GC carrying follicles. Red sidebars are follicles without GC.

[6] = cancer patients, effective dose; cited from earlier work
[7] = test system: ex vivo-cultured arthritic B cells; experiment: Ahr expression (RT-qPCR) in ex vivo-cultured arthritic B cells; format: cell-based, mouse; details: 20 μM AzaC, FIG. 1(J)
Source text: Primary mouse cells were collected from the spleens, on day 9 after the third PG injection. B cells were purified using antibody-coated magnetic beads (StemCell Technologies). RNA was isolated from purified mouse lymphocytes using a TRI reagent (Sigma-Aldrich) immediately after separation.

[8] = test system: proteoglycan-induced arthritis (PGIA); experiment: Therapeutic AzaC treatment of established PGIA; format: in vivo, BALB/c mice; details: AzaC i.p. every other day after first symptoms (score ≥2), 2 mg/kg
Description: as §2
In the therapeutic AzaC treatment group, arthritic mice were i.p. injected with either AzaC or vehicle on every other day following the first symptoms of arthritis, when the visual arthritis score was at least ≥2 per animal (FIG. 3(B)).

[9] = test system: A20 cells; experiment: Gene expression (qRT-PCR) in A20 cells cultured with epigenetic enzyme inhibitors; format: cell-based, mouse; details: for AhR gene expression / Arnt gene expression: AzaC 2, 5, 10 μM, SAHA 0.1, 0.5, 1.0 μM, GSK126 5, 10, 15 μM, FIG. 6
[10] = biological target: Ezh2 (Homo sapiens, UniProt Q15910); details: cited from earlier work
Ezh2, sequence (Q15910 whole entry, species assumed): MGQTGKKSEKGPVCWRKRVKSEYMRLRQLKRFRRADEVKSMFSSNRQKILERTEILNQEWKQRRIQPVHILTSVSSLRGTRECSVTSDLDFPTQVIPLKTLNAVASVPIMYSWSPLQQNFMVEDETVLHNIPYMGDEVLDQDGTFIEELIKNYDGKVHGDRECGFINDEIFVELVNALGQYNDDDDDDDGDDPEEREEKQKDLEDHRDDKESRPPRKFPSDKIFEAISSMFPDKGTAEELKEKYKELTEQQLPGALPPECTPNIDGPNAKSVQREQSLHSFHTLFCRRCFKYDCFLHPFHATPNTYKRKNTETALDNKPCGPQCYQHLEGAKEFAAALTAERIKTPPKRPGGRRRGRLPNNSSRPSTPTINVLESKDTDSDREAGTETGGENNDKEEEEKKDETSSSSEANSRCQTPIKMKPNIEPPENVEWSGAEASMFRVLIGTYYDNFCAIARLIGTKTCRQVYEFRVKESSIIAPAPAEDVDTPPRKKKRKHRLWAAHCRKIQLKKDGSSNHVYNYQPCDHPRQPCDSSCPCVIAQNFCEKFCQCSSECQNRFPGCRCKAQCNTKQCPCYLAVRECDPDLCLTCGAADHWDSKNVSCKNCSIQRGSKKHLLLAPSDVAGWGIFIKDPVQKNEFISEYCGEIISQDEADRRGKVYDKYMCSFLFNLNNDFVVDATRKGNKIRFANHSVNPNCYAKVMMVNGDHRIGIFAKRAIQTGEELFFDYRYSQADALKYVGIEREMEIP
Ezh2, sequence (O75530 whole entry partner, species assumed): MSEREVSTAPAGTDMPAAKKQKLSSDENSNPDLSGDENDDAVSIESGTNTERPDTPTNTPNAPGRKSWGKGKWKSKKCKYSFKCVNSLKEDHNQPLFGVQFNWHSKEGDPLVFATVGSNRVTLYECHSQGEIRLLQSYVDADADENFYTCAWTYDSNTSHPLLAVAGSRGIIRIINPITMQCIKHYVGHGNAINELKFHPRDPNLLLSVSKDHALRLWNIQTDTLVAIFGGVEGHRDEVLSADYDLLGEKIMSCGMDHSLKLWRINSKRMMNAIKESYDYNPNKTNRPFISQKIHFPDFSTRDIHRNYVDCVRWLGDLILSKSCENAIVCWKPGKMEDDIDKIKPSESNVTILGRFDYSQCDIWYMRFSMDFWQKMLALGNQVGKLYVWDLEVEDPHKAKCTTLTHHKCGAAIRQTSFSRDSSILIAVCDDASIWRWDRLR
Ezh2, sequence (Q15022 whole entry partner, species assumed): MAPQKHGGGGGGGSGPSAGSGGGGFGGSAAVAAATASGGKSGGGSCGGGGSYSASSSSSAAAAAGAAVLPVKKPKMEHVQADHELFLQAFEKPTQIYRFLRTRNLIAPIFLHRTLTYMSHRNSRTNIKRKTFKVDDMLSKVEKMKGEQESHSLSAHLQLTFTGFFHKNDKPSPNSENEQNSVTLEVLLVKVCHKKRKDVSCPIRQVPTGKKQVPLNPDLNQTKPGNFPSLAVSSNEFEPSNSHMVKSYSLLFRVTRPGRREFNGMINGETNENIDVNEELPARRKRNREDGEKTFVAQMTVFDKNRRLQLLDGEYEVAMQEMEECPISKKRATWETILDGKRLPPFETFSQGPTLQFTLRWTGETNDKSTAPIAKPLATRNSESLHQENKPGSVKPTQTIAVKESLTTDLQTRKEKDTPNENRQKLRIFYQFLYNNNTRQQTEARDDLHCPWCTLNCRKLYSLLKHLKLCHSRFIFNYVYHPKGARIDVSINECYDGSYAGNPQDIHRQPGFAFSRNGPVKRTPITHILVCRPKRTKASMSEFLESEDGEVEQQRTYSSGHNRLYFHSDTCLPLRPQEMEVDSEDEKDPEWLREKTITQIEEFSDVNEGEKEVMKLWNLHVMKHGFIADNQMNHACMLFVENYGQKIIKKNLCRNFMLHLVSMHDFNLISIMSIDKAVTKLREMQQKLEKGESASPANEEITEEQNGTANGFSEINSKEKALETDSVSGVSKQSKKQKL
Ezh2, sequence (Q09028 whole entry partner, species assumed): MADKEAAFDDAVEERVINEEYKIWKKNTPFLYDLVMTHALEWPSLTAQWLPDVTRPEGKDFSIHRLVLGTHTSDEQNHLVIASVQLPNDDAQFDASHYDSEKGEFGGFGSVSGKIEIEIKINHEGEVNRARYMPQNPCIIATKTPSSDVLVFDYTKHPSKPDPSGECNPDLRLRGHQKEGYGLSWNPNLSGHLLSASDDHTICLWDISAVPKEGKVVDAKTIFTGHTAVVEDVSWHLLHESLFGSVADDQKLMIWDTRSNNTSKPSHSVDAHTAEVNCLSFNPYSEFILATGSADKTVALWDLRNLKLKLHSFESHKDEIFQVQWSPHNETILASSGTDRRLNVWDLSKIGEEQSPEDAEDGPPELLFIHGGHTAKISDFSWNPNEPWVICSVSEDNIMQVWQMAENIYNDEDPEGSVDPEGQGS

[11] = AzaC 48 hours, plasmid not expressing Ahr-specific shRNA
[12] = B cells of AzaC-treated PGIA mice, RT-qPCR

Nc1ncn([C@@H]2O[C@H](CO)[C@@H](O)[C@H]2O)c(=O)n1 [AzaC, 4-Amino-1-(β-D-ribofuranosyl)-1,3,5-triazin-2(1H)-one]
Histology of ankle joints ([1]; AzaC-treated arthritic versus naive (non-immunized) ankles): no detectable histological differences
Immature B cell number ([1]; bone marrow, flow cytometry): significant decrease
Plasma cell number ([1]; bone marrow, flow cytometry): reduced, but statistically not significant alteration
Autoantibody titer (human PG-specific IgG1, ELISA) ([1]; sera of AzaC-treated PGIA mice): diminish autoantibody production; also recorded: significantly reduced
Splenic marginal zone (MZ) and follicular B cell populations ([1]; spleen, flow cytometry): no significant change
Translocation of AhR into nuclei ([2]; 10 μM AzaC for 72 hours, Western blot): translocation of the translated product into A20 nuclei; also recorded: AhR translocated into the nucleus without adding specific agonist
Aicda protein level in cytoplasmic fraction ([2]; Western blot, FIG. 2(E)): downregulation could be also observed at protein level; also recorded: reduces Aicda level
AhR protein level ([2]; Western blotting): elevated AhR protein level was not detected
Expression of tentative AhR target genes (cytokine genes) ([3]; 10 μM AzaC for 72 hours, FIG. 5(C)): could significantly alter the expression of three tentative AhR target genes
Aicda expression with Ahr-specific shRNA ([3]; AzaC 48 hours plus Ahr-specific shRNA-expressing construct): reversed
Ahr expression, control plasmid [3, 11]: significantly increased
Aicda expression, control plasmid [3, 11]: downregulated
AhR gene expression ([3]; AzaC in various concentrations (5, 10, 15 μM), followed for three days, FIG. 1(L)): could revive AhR expression after two days
Cyp1a1 gene expression ([3]; AzaC treatment): elevated expression of Cyp1a1 gene
Arnt expression ([3]; AzaC treatment, FIG. 1(M), FIG. 2(A)): increased; also recorded: reactivated; also recorded: just prolonged and high concentration AzaC treatment could have released it from the silent state
RelB expression ([3]; AzaC treatment, FIG. 2(B)): increased
Development of PGIA (signs of disease) [4]: No sign of the disease was observed; also recorded: prevents the development of arthritis; also recorded: prevents PGIA development
Ahr expression in vivo [5, 12]: restore Ahr expression in vivo; also recorded: increased Ahr expression; also recorded: sufficient for releasing Ahr expression from DNA methylation-mediated blockage; also recorded: reactivated
Aicda expression in vivo [5, 12]: markedly inhibited; also recorded: downregulation of Aicda expression
DNA methylation level of Ahr promoter (MIRA) ([5]; B cells of AzaC-treated arthritic mice): erased arthritis-associated DNA hypermethylation; also recorded: reduced
Germinal center (GC) formation ([5]; spleen and draining lymph nodes): seriously impaired GC development and reduced GC number; also recorded: diminished; also recorded: impaired GC formation
Post-recombinant IgG1 transcript level (class switch recombination) ([5]; splenic B cells of AzaC-treated PGIA mice, qRT-PCR): significantly decreased
Adverse drug events / side effects [6]: triggers cytotoxicity and induces nausea, vomiting, fevers, diarrhea, rigors and many other side effects; also recorded: induces severe adverse drug events (ADEs)
Ahr expression [7]: restored
Swelling and progression of established PGIA [8]: significantly reduce swelling and halt the progression of PGIA; also recorded: very effective; also recorded: no detectable signs of PGIA after the second AzaC injection; also recorded: halted the progression of PGIA; also recorded: clinical symptoms of RA were abolished
Ahr expression, time course ([9]; 10 μM AzaC, 24, 48 and 72 hours): could be reactivated; also recorded: increased Ahr expression; also recorded: significantly increased; also recorded: releases Ahr from DNA methylation-mediated silencing
AhR gene expression ([9]; 72 hours): significant reactivation
Arnt gene expression ([9]; 72 hours): could not trigger significant upregulation
Aicda expression ([9]; extended exposure to AzaC (24-72 hours)): significantly downregulated; also recorded: reduces Aicda expression; also recorded: downregulated expression

CC[C@H](C)n1cc(C)c2c(C(=O)NCc3c(C)cc(C)[nH]c3=O)cc(-c3ccc(N4CCNCC4)nc3)cc21 [GSK126, N-[(1,2-dihydro-4,6-dimethyl-2-oxo-3-pyridinyl)methyl]-3-methyl-1-[(1S)-1-methylpropyl]-6-[6-(1-piperazinyl)-3-pyridinyl]-1H-indole-4-carboxamide]
AhR gene expression ([9]; 72 hours): promoted the expression
Arnt gene expression ([9]; 72 hours): statistically significant upregulation

CCCc1cc(C)[nH]c(=O)c1CNC(=O)c1cc(-c2ccnc(N3CCN(C)CC3)c2)cc2c1cnn2C(C)C [GSK343, N-[(1,2-dihydro-6-methyl-2-oxo-4-propyl-3-pyridinyl)methyl]-1-(1-methylethyl)-6-[2-(4-methyl-1-piperazinyl)-4-pyridinyl]-1H-indazole-4-carboxamide]
Ki (affinity to Ezh2) [10]: low nM range

O=C(CCCCCCC(=O)Nc1ccccc1)NO [SAHA, suberanilohydroxamic acid]
Cytotoxicity ([9]; 72 hours): without high cytotoxicity
AhR gene expression ([9]; 72 hours): could increase the gene expression
Arnt gene expression ([9]; 72 hours): could increase the gene expression

Reference: patent publication US11992500B2, “Use of methylation inhibitors for the treatment of autoimmune diseases” (Rush University Medical Center, priority 2018, dated 2024)
